Assay results as given in US6875760B2 (Novo Nordisk A/S, priority 1999, dated 2005).
Like-named read-outs stand apart in the source and are kept apart here.

Target: T1, human glucagon receptor (Homo sapiens, UniProt P47871)
T1 construct: expressed in transfected cells; host or cells: BHK (baby hamster kidney) cells
Assay: Glucagon Binding Assay (III)
Details: BHK cell membranes, WGA SPA beads, 125I-glucagon
Procedure, shortened: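 Non-specific binding was set with 500 nM glucagon in this SPA-type binding assay using WGA beads. The receptor source was a membrane preparation, kept on ice or at 4 °C, from BHK cells transfected with the human receptor. Scintillation counts were taken after 4 hours of shaking and 8–48 hours of settling.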

[1] = read-out: Glu Bd Assay (III) IC50

T1 sequence (P47871 26-477): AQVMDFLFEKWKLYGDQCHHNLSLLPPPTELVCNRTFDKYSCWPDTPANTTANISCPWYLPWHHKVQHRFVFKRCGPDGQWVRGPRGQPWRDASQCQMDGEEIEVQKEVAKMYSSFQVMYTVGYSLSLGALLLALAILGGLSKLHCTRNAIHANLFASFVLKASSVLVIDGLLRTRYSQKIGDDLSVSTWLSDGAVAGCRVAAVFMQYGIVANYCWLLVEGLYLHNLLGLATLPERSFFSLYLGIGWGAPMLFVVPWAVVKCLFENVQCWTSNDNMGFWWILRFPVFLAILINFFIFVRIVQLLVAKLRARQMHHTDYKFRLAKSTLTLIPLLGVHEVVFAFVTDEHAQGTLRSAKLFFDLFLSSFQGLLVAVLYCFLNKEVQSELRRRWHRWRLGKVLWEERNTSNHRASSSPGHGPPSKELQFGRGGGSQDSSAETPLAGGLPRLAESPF

SMILES	IC50 [1] [nM]	IC50 (Glu Bd Assay (III) IC50 (nM)) [nM]
CC(C)(C)[C@H]1CC[C@H](N(Cc2ccc(C(=O)NCCC(=O)O)cc2)C(=O)Nc2cc(Cl)c(Cl)c(Cl)c2)CC1 [Example 238, 3-{4-[1-(trans-4-tert-Butylcyclohexyl)-3-(3,4,5-trichlorophenyl)ureidomethyl]benzoylamino}propionic acid]	103	–
CCCCNS(=O)(=O)c1ccc(NC(=O)N(Cc2ccc(C(=O)NCCC(=O)O)cc2)[C@H]2CC[C@H](C(C)(C)C)CC2)cc1 [Example 239, 3-{4-[1-(trans-4-tert-Butylcyclohexyl)-3-(4-butylsulfamoylphenyl)ureidomethyl]benzoylamino}propionic acid]	1890	–
CCN(CC)C(=O)c1ccc(NC(=O)N(Cc2ccc(C(=O)NCCC(=O)O)cc2)[C@H]2CC[C@H](C(C)(C)C)CC2)cc1 [Example 240, 3-{4-[1-(trans-4-tert-Butylcyclohexyl)-3-(4-diethylcarbamoylphenyl)ureidomethyl]benzoylamino}propionic acid]	–	2430
CC(C)(C)[C@H]1CC[C@H](N(Cc2ccc(C(=O)NCCC(=O)O)cc2)C(=O)Nc2ccc(OCC3CC3)cc2)CC1 [Example 241, 3-{4-[1-(trans-4-tert-Butylcyclohexyl)-3-(4-cyclopropylmethoxyphenyl)ureidomethyl]benzoylamino}propionic acid]	–	140
CC(C)(C)[C@H]1CC[C@H](N(Cc2ccc(C(=O)NCCC(=O)O)cc2)C(=O)Nc2ccc(OC(F)(F)F)cc2Br)CC1 [Example 242, 3-{4-[3-(2-Bromo-4-trifluoromethoxyphenyl)-1-(trans-4-tert-butylcyclohexyl)ureidomethyl]benzoylamino}propionic acid]	–	153
CC(C)(C)[C@H]1CC[C@H](N(Cc2ccc(C(=O)NCCC(=O)O)cc2)C(=O)Nc2ccccc2)CC1 [Example 243, 3-{4-[1-(trans-4-tert-Butylcyclohexyl)-3-phenylureidomethyl]benzoylamino}propionic acid]	–	1090
O=C(O)CCNC(=O)c1ccc(CN(C(=O)Nc2ccc(OC(F)(F)F)cc2)C2CCC(Oc3ccccc3)CC2)cc1 (stereo not shown) [Example 244, 3-{4-[1-(4-Phenoxycyclohexyl)-3-(4-trifluoromethoxyphenyl)ureidomethyl]benzoylamino}propionic acid]	528	–
CCOC(=O)N1CCC(NC(=O)N(Cc2ccc(C(=O)NCCC(=O)O)cc2)[C@H]2CC[C@H](C(C)(C)C)CC2)CC1 [Example 245, 4-{3-(trans-4-tert-Butylcyclohexyl)-3-[4-(2-carboxyethylcarbamoyl)benzyl]ureido}piperidine-1-carboxylic acid ethyl ester]	4050	–
CC(C)(C)C1CCC(N(Cc2ccc(C(=O)NCCC(=O)O)cc2)C(=O)Nc2ccc(Oc3ccccc3)nc2)CC1 (stereo not shown) [Example 246, 3-{4-[1-(4-tert-Butylcyclohexyl)-3-(6-phenoxypyridin-3-yl)ureidomethyl]benzoylamino}propionic acid]	146	–
CC(C)(C)[C@H]1CC[C@H](N(Cc2ccc(C(=O)NCCC(=O)O)cc2)C(=O)Nc2ccc(C#N)cc2OC(F)(F)F)CC1 [Example 247, 3-{4-[1-(trans-4-tert-Butylcyclohexyl)-3-(4-cyano-2-trifluoromethoxyphenyl)ureidomethyl]benzoylamino}propionic acid]	–	215
O=C(O)CCNC(=O)c1ccc(CN(C(=O)Nc2ccc(OC(F)(F)F)cc2)C2CCC(=C3CC3)CC2)cc1 (stereo not shown) [Example 248, 3-{4-[1-(4-Cyclopropylidenecyclohexyl)-3-(4-trifluoromethoxyphenyl)ureidomethyl]benzoylamino}propionic acid]	571	–
O=C(O)CCNC(=O)c1ccc(CN(C(=O)Nc2ccc(OC(F)(F)F)cc2)C2CCC(C3CC3)CC2)cc1 (stereo not shown) [Example 249, 3-{4-[1-(4-Cyclopropylcyclohexyl)-3-(4-trifluoromethoxyphenyl)ureidomethyl]benzoylamino}propionic acid]	320	–
CC(C)(C)[C@H]1CC[C@H](N(Cc2ccc(C(=O)NCCC(=O)O)cc2)C(=O)Nc2ccc(OCC3CC3)cc2C(F)(F)F)CC1 [Example 250, 3-{4-[1-(trans-4-tert-Butylcyclohexyl)-3-(4-cyclopropylmethoxy-2-trifluoromethylphenyl)ureidomethyl]benzoylamino}propionic acid]	–	182
CC(C)(C)[C@H]1CC[C@H](N(Cc2ccc(C(=O)NCCC(=O)O)cc2)C(=O)Nc2ccc(OC(F)(F)F)c(C#N)c2)CC1 [Example 251, 3-{4-[1-(trans-4-tert-Butylcyclohexyl)-3-(3-cyano-4-trifluoromethoxyphenyl)ureidomethyl]benzoylamino}propionic acid]	56	–
CC(C)(C)C1CCC(N(Cc2ccc(C(=O)NCCC(=O)O)cc2)C(=O)Nc2cccc(S(C)(=O)=O)c2)CC1 (stereo not shown) [Example 252, 3-{4-[1-(4-tert-Butylcyclohexyl)-3-(3-methylsulfonylphenyl)ureidomethyl]benzoylamino}propionic acid]	1320	–
CC(C)(C)[C@H]1CC[C@H](N(Cc2ccc(C(=O)NCCC(=O)O)cc2)C(=O)Nc2cc(-c3ccccc3)n[nH]2)CC1 [Example 253, 3-{4-[1-(4-trans-tert-Butylcyclohexyl)-3-(5-Phenyl-2H-pyrazol-3-yl)ureidomethyl]benzoylamino}propionic acid]	1170	–
CCOC(=O)c1ccc2nc(NC(=O)N(Cc3ccc(C(=O)NCCC(=O)O)cc3)[C@H]3CC[C@H](C(C)(C)C)CC3)sc2c1 [Example 254, 2-{3-(4-trans-tert-Butylcyclohexyl)-3-[4-(2-carboxyethylcarbamoyl)benzyl]ureido}benzothiazole-6-carboxylic acid ethyl ester]	266	–
CC(C)(C)[C@H]1CC[C@H](N(Cc2ccc(C(=O)NCCC(=O)O)cc2)C(=O)Nc2cc(Cl)cc(Cl)c2)CC1 [Example 255, 3-{4-[1-(trans-4-tert-Butylcyclohexyl)-3-(3,5-dichlorophenyl)ureidomethyl]benzoylamino}propionic acid]	–	80
N#Cc1cccc(NC(=O)N(Cc2ccc(C(=O)Nc3nn[nH]n3)cc2)c2ccc(C3CCCCC3)cc2)c1 [Example 256, 4-[3-(3-Cyanophenyl)-1-(4-cyclohexylphenyl)ureidomethyl]-N-(2H-tetrazol-5-yl)benzamide]	75	–
CC(C)(C)c1ccc(N(Cc2ccc(C(=O)Nc3nn[nH]n3)cc2)C(=O)Nc2ccc3ncsc3c2)cc1 [Example 257, 4-[3-Benzothiazol-6-yl-1-(4-tert-butylphenyl)ureidomethyl]-N-(2H-tetrazol-5-yl)benzamide]	684	–
O=C(Nc1nn[nH]n1)c1ccc(CN(C(=O)Nc2ccc3c(c2)S(=O)(=O)CC3)c2ccc(C3CCCCC3)cc2)cc1 [Example 258, 4-[1-(4-Cyclohexylphenyl)-3-(1,1-dioxo-2,3-dihydro-1H-1-benzo[b]thiophen-6-yl)ureidomethyl]-N-(2H-tetrazol-5-yl)benzamide]	773	–
CC(C)(C)c1ccc(N(Cc2ccc(C(=O)Nc3nn[nH]n3)cc2)C(=O)Nc2ccc3c(c2)S(=O)(=O)CC3)cc1 [Example 259, 4-[1-(4-tert-Butylphenyl)-3-(1,1-dioxo-2,3-dihydro-1H-benzo[b]thiophen-6-yl)ureidomethyl]-N-(2H-tetrazol-5-yl)benzamide]	1690	–
